Reference: patent US10406094B2, “Composition for fast dry of hair” (The Procter & Gamble Company, priority 2016, dated 2019)

Assay: DVS measurement: % reduction in amount of water absorbed by treated hair
Design: % reduction in water absorbed: concentration or dose not given beside the values
Settings: Molecular Class II
Protocol: The leave-on treatment compositions are prepared by adding the Moisture Control Materials and perfume, if needed, into a 50:50 ethanol/water carrier and stirred until complete dissolution. The solution pH is adjusted using sodium hydroxide (50% w/w) to a final pH of 4.0-4.2.
The hair is allowed to air dry and then analyzed using the DVS method described above. The experiment is repeated for a dosage of 0.50 g of solution per g of hair. The hair in this case is also assessed by expert graders, as described below, in addition to the DVS analysis.
An amount of 25-30 mg of hair with length of approximately 1 cm is weighed and hold for equilibration at 0% RH for 16 hours. After the 16-hour period, the RH is increased to 10% and maintained at this level for 6 hours. Then, the RH is increased by 10% after every 6 hours interval until it reaches 90% RH. The % reduction in amount of water absorbed is calculated as follows:
A=Amount of water absorbed by the hair treated with composition containing the Moisture Control Material
B=Amount of water absorbed by the hair treated with control composition (only carrier) containing no Moisture Control Material % reduction in amount of water absorbed=[(B−A)×100]/B

Row | Compound | % reduction in water absorbed [%]
1 | CCCCCCCCC(CO)CCCCCC (stereo not drawn) [2-Hexyl-1-decanol] | 11
2 | O=C(OCCO)c1ccccc1O [2-Hydroxyethyl salicylate] | 10
3 | CCOC(=O)c1cc(O)c(O)c(O)c1 [Ethyl gallate] | 17
4 | CCCCC/C=C\C/C=C\CCCCCCCC(=O)OCC [Ethyl linoleate] | 8
5 | CCCCCCCC/C=C\CCCCCCCC(=O)OCC(O)CO (stereo not drawn) [Glyceryl monooleate] | 5
6 | CC(C)C(=O)O [Isobutyric acid] | 5
7 | CCCCCCCCCCCCCC(=O)OC(C)C [Isopropyl myristate] | 12
8 | CC(C)CCCCCCCCCCCCCCCOC(=O)CCCCCCCCCCCCCCC(C)C [Isostearyl isostearate] | 11
9 | CCCCCCCC/C=C\CCCCCCCC(=O)O [Oleic Acid] | 14
10 | C/C(=C\CO)CCC[C@H](C)CCC[C@H](C)CCCC(C)C [Phytol] | 14
11 | CCCCCC[C@@H](O)C/C=C\CCCCCCCC(=O)O [Ricinoleic acid] | 8.8
12 | Sorbitan caprylate | 11

Same assay, conditions: material at 1% wt/vol

Row | Compound | % Reduction in amount of water absorbed [%]
13 | O=C(O)c1ccc(O)cc1O [2,4-Dihydroxybenzoic acid] | 30
14 | O=C(O)c1cc(O)c(C(=O)O)cc1O [2,5 Dihydroxyterephthalic acid] | 18
15 | O=C(O)c1cc(O)ccc1O [2,5-Dihydroxybenzoic acid] | 27
16 | O=C(O)c1c(O)cccc1O [2,6-Dihydroxybenzoic acid] | 35
17 | Nc1ccccc1O [2-Aminophenol] | 14
18 | O=C(O)c1ccc(O)c(O)c1 [3,4-Dihydroxybenzoic acid] | 20
19 | O=C(O)c1cc(Cl)c(O)c(Cl)c1 [3,5-Dichloro-4-hydroxybenzoic acid] | 15
20 | O=C(O)c1cc(O)cc(O)c1 [3,5-Dihydroxybenzoic acid] | 15
21 | Nc1cccc(C(=O)O)c1 [3-Aminobenzoic acid] | 12
22 | Nc1cccc(O)c1 [3-Aminophenol] | 14
23 | O=C(O)c1ccc(O)c(Cl)c1 [3-Chloro-4-hydroxybenzoic acid] | 11
24 | Cl.Nc1cccc(O)c1 [3-Hydroxyanilinium chloride] | 16
25 | O=C(O)c1cccc(O)c1 [3-Hydroxybenzoic Acid] | 20
26 | Nc1ccc(C(=O)O)cc1 [4-Aminobenzoic acid] | 12
27 | Nc1ccc(O)cc1 [4-Aminophenol] | 10
28 | O=S(=O)(O)c1ccc(O)cc1 [4-Hydroxybenzenesulphonic acid] | 26
29 | O=C(O)c1cc(Cl)ccc1O [5-Chlorosalicylic acid] | 28
30 | O=C(O)c1cc(O)c(O)c(O)c1 [Gallic acid] | 15
31 | O=C(O)CNc1ccc(O)cc1 [N-4-Hydroxyphenylglycine] | 15
32 | COc1cc(/C=C/C(=O)O)ccc1O [Trans-Ferulic Acid] | 6
33 | O=C(O)/C=C/c1ccc(O)cc1 [p-Coumaric acid] | 8.8
